According to article PMC5572662 (ChemMedChem, 2017):
“Also recorded” adds a separate entry of the source. Square brackets hold non-standard residues; d marks the D form. Peptide text beside a SMILES is read from it. * marks the point of attachment. NH(4-amidinobenzyl) = N=C(N)c1ccc(CN*)cc1; Tle = CC(C)(C)[C@H](N)C(=O)O; PhAc = O=C(Cc1ccccc1)*

How the values were obtained:
[1] = system: Pseudomonas aeruginosa exotoxin A; conditions: living rodents ref 8; cited from earlier work
[2] = system: anthrax toxin; conditions: living rodents ref 8; cited from earlier work
[3] = target: recombinant soluble human furin (Homo sapiens, UniProt P09958); assay: Enzyme kinetic measurements with recombinant soluble human furin; type: biochemical; conditions: for Ki: Furin Ki, as given in the text in nM; for fold improved Ki (inhibition constant) versus parent analogue: 20 versus 18 (P3 Val to Tle), 21 and 22 versus the P2 Lys analogues
Chain of recombinant soluble human furin (P09958 108-715 limits assumed): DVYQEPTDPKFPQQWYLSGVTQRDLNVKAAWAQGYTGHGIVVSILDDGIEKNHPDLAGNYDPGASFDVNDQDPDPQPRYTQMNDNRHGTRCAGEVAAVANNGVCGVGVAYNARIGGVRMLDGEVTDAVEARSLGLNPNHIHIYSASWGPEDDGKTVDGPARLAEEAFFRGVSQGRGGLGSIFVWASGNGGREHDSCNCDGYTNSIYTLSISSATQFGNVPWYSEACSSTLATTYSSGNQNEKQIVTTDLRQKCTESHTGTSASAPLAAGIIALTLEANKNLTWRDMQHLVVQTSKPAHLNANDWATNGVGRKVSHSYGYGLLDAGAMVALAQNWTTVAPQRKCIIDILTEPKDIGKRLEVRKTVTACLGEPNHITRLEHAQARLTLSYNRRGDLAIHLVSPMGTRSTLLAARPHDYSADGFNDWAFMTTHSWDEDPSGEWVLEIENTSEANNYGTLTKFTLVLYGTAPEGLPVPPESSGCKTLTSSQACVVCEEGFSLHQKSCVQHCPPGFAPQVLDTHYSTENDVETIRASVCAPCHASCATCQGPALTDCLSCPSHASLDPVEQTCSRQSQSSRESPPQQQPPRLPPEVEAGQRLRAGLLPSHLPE

[4] = system: Semliki Forest virus (SFV); assay: Semliki Forest virus replication in BHK-21 cells, titers by plaque assay; type: cell-based; conditions: for reduction of SFV virus titer: 25 μM inhibitor, MOI 0.01, plaque assay 24 h post-infection
[5] = system: chikungunya virus (CHIKV); assay: Chikungunya virus replication in BHK-21 cells, titers by plaque assay; type: cell-based; conditions: 25 μM inhibitor, MOI 0.1, plaque assay 24 h post-infection
[6] = system: E3-E2 (p62) cleavage; assay: Western blot of E3-E2; type: cell-based, Semliki Forest virus; conditions: 25 μM inhibitor, BHK-21 cells, SFV MOI 10, 8 h post-infection

Row | Compound | Ki [3] [nM] | fold improved Ki (inhibition constant) versus parent analogue [3] | further results
1 | hexa-D-arginine | – | – | protective effect against Pseudomonas aeruginosa exotoxin A [1]: protective effect; protective effect against anthrax toxin [2]: protective effect
2 | CC(C)[C@H](NC(=O)Cc1cccc(CN)c1)C(=O)N[C@@H](CCCNC(=N)N)C(=O)NCc1ccc(C(=N)N)cc1 [Compound 23, 3-AMe-Phac-Val-Arg-4-Amba] | 48.2 | – | –
3 | CC(=O)N[C@@H](CC(C)C)C(=O)N[C@@H](CC(C)C)C(=O)N[C@@H](CC(C)C)C(=O)N[C@@H](CC(C)C)C(=O)N[C@@H](CCCNC(=N)N)C(=O)N[C@H](C(=O)N[C@@H](CCCNC(=N)N)C(=O)NCc1ccc(C(=N)N)cc1)C(C)(C)C [Compound 22, Ac-Leu-Leu-Leu-Leu-Arg-Tle-Arg-4-Amba] (Ac-LLLLR[Tle]R-{NH(4-amidinobenzyl)}) | – | ~ 2 fold | –
4 | CC(C)[C@H](NC(=O)[C@H](CCCNC(=N)N)NC(=O)[C@H](CCCNC(=N)N)NC(=O)[C@H](CCCNC(=N)N)NC(=O)Cc1ccccc1)C(=O)N[C@@H](CCCNC(=N)N)C(=O)NCc1ccc(C(=N)N)cc1 [Compound 5, Phac-Arg-Arg-Arg-Val-Arg-4-Amba] (PhAc-RRRVR-{NH(4-amidinobenzyl)}) | – | – | reduction of SFV virus titer [4]: less than one order of magnitude
5 | CC(=O)N[C@@H](CC(C)C)C(=O)N[C@@H](CC(C)C)C(=O)N[C@@H](CC(C)C)C(=O)N[C@@H](CC(C)C)C(=O)N[C@@H](CCCNC(=N)N)C(=O)N[C@H](C(=O)N[C@@H](CCCCN)C(=O)NCc1ccc(C(=N)N)cc1)C(C)(C)C [Compound 20, Ac-Leu-Leu-Leu-Leu-Arg-Tle-Lys-4-Amba] (Ac-LLLLR[Tle]K-{NH(4-amidinobenzyl)}) | – | 2.5 fold | –
6 | CC(=O)N[C@@H](CC(C)C)C(=O)N[C@@H](CC(C)C)C(=O)N[C@@H](CC(C)C)C(=O)N[C@@H](CC(C)C)C(=O)N[C@@H](CCCN=C(N)N)C(=O)N[C@H](C(=O)N[C@@H](CCCCN)C(=O)NCc1ccc(C(=N)N)cc1)C(C)C [Compound 18, Ac-Leu-Leu-Leu-Leu-Arg-Val-Lys-4-Amba, reference compound] (Ac-LLLLRVK-{NH(4-amidinobenzyl)}) | ~0.5 | – | –
7 | CC(=O)N[C@H](CC(C)C)C(=O)N[C@@H](CC(C)C)C(=O)N[C@@H](CC(C)C)C(=O)N[C@@H](CC(C)C)C(=O)N[C@@H](CCCNC(=N)N)C(=O)N[C@H](C(=O)N[C@@H](CCCCN)C(=O)NCc1ccc(C(=N)N)cc1)C(C)C [Compound 19, Ac-DLeu-Leu-Leu-Leu-Arg-Val-Lys-4-Amba, reference compound] (Ac-[dL]LLLRVK-{NH(4-amidinobenzyl)}) | ~0.5 | – | –
8 | CC(C)[C@H](NC(=O)[C@H](CCCNC(=N)N)NC(=O)[C@H](CCCNC(=N)N)NC(=O)[C@H](N)CCCNC(=N)N)C(=O)N[C@@H](CCCNC(=N)N)C(=O)NCc1ccc(C(=N)N)cc1 [Compound 9, H-DArg-Arg-Arg-Val-Arg-4-Amba] (H-[dR]RRVR-{NH(4-amidinobenzyl)}) | – | – | reduction of CHIKV virus titer [5]: strongly reduced titers; reduction of SFV virus titer [4]: less than one order of magnitude; also recorded: strongly reduced titers; concentration dependence of inhibition of SFV replication ([4]; MOI 0.01, 24 h post-infection (Figure 4)): concentration-dependent inhibition of SFV replication; inhibition of E3-E2 (p62) cleavage [6]: Inhibition of E3-E2 (p62) cleavage
9 | CC(C)[C@H](NC(=O)Cc1ccc(CN)cc1)C(=O)N[C@@H](CCCNC(=N)N)C(=O)NCc1ccc(C(=N)N)cc1 [Compound 24, 4-AMe-Phac-Val-Arg-4-Amba] | 37.8 | – | –
10 | CC(=O)N[C@@H](CC(C)C)C(=O)N[C@@H](CC(C)C)C(=O)N[C@@H](CC(C)C)C(=O)N[C@@H](CC(C)C)C(=O)N[C@@H](CCCNC(=N)N)C(=O)N[C@H](C(=O)N[C@@H](CCCNC(=N)N)C(=O)NCc1ccc(C(=N)N)cc1)C(C)C [Compound 21, Ac-Leu-Leu-Leu-Leu-Arg-Val-Arg-4-Amba] (Ac-LLLLRVR-{NH(4-amidinobenzyl)}) | – | ~ 2 fold | –
